The values below come from patent publication US11130769B2 (Prelude Therapeutics Incorporated, priority 2018, dated 2021).

Where two headings read alike, the source gives them in different places. Some results are limits rather than exact numbers.

By IC50 is commonly meant the concentration that inhibits the measured activity by half.

The target of one experiment is MCL-1 (Homo sapiens (Human), UniProt Q07820). As to the kind of experiment: Cell free Mcl-1:Bim affinity assay (fluorescence polarization competition). The format is binding. Conditions: 15 nM MCL-1, 5 nM FITC-Bim, 1 hour at room temperature, read-out: BIM_Ki. The gist of the method:
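Compounds competed with FITC-labelled Bim peptide (5 nM) for MCL-1 (15 nM) in HEPES/NaCl buffer with 1% DMSO, 1 h at room temperature. Fluorescence polarization (535 nm emission) gave % inhibition versus DMSO and positive controls; IC50 from 10-point curves, converted to Ki by the Nikolovska-Coleska equation.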

A further experiment deals with H929 cells. The experiment is described as follows: Cell viability assay (H929 10 FBS). Conditions: Homo sapiens, NCI-H929, 24 hours, read-out: H929_10FBS IC50. The format is cell-based. The gist of the method: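 H929 cells, 4000/well, in RPMI 1640 with 10% FBS, sodium pyruvate, HEPES and glucose were exposed to compound 24 h at 37 °C. Viability read as luminescence after 30-60 min at RT with CellTiter-Glo or ATPlite 1 Step.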

MCL-1, sequence (Q07820 whole entry): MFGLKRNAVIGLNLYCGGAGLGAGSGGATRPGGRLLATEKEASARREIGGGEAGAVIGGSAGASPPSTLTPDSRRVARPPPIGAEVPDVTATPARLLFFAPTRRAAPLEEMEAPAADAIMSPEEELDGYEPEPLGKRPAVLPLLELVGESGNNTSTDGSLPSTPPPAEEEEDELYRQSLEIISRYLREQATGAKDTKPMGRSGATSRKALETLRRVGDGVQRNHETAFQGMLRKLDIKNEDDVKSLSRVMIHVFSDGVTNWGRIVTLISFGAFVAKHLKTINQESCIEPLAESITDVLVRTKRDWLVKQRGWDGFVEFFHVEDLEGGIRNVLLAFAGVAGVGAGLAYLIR

Regarding `C[C@@H]1CN(C(=O)O[C@H]2/C=C/COC(C)(C)C(=O)NS(=O)(=O)c3ccc4c(c3)N(C[C@@H]3CC[C@H]32)C[C@@]2(CCCc3cc(Cl)ccc32)CO4)CCN1` [Example 175, [(3R,6R,7S,8E,22S)-6′-Chloro-12,12-dimethyl-13,15,15-trioxo-spiro[11,20-dioxa-15-thia-1,14-diazatetracyclo[14.7.2.03,6.019,24]pentacosa-8,16,18,24-tetraene-22,1′-tetralin]-7-yl] (3R)-3-methylpiperazine-1-carboxylate], the Ki at MCL-1 (class symbols) was under 1 nM. Also, in the experiment on H929 cells, the IC50 is under 500 nM.
In the same order, the values of `CN(C(=O)O[C@H]1/C=C/CN(C)C2(CCC2)C(=O)NS(=O)(=O)c2ccc3c(c2)N(C[C@@H]2CC[C@H]21)C[C@@]1(CCCc2cc(Cl)ccc21)CO3)C1COC1` [Example 240, [(3R,6R,7S,8E,22S)-6′-Chloro-11-methyl-12,12-(1,3-propylene)-13,15,15-trioxo-spiro[20-oxa-15-thia-1,14-triazatetracyclo[14.7.2.03,6.019,24]pentacosa-8,16,18,24-tetraene-22,1′-tetralin]-7-yl] N-methyl-N-(oxetan-3-yl)carbamate] are under 1 nM and under 500 nM.
For `CO[C@@H]1/C=C/CNC2(CC2)C(=O)NS(=O)(=O)c2ccc3c(c2)N(C[C@@H]2CC[C@H]21)C[C@@]1(CCCc2cc(Cl)ccc21)CO3` [Example 119, (3R,6R,7R,8E,22S)-6′-Chloro-7-methoxy-12,12-ethylene-15,15-dioxo-spiro[20-oxa-15-thia-1,11,14-triazatetracyclo[14.7.2.03,6.019,24]pentacosa[8,16(25),17,19(24)]tetraene-22,1′-tetralin]-13-one] the same measures were 1 to 100 nM and under 1000 nM.
In the same order, the values of `CN(C(=O)O[C@H]1/C=C/COC(C)(C)C(=O)NS(=O)(=O)c2ccc3c(c2)N(C[C@@H]2CC[C@H]21)C[C@@]1(CCOc2cc(Cl)ccc21)CO3)C1COC1` [Example 303, [(3R,6R,7S,8E,22S)-7′-Chloro-12,12-dimethyl-13,15,15-trioxo-spiro[11,20-dioxa-15-thia-1,14-diazatetracyclo[14.7.2.03,6.019,24]pentacosa-8,16,18,24-tetraene-22,4′-chromane]-7-yl] N-methyl-N-(oxetan-3-yl)carbamate] are under 1 nM and under 500 nM.
In the case of `CC(=O)NS(=O)(=O)c1ccc2c(c1)N(Cc1ccccc1)CC1(CCCc3cc(Cl)ccc31)CO2` (stereo not shown) [Example 4, N-(5-Benzyl-6′-chloro-spiro[2,4-dihydro-1,5-benzoxazepine-3,1′-tetralin]-7-yl)sulfonylacetamide], at MCL-1 (numeric values), the Ki came to 207 nM. Moreover, in the experiment with H929 cells, the IC50 is over 1000 nM.
In the case of `CNC(=O)O[C@H]1/C=C/CN(C)C(C)(C)C(=O)NS(=O)(=O)c2ccc3c(c2)N(C[C@@H]2CC[C@H]21)C[C@@]1(CCCc2cc(Cl)ccc21)CO3` [Example 203, [(3R,6R,7S,8E,22S)-6′-Chloro-11,12,12-trimethyl-13,15,15-trioxo-spiro[20-oxa-15-thia-1,11,14-triazatetracyclo[14.7.2.03,6.019,24]pentacosa-8,16,18,24-tetraene-22,1′-tetralin]-7-yl] N-methylcarbamate], at MCL-1 (class symbols), the Ki is under 1 nM. Also, the half-maximal inhibitory concentration (IC50) with H929 cells is under 500 nM.
For `COC1CCN(C(=O)O[C@H]2/C=C/COC(C)(C)C(=O)NS(=O)(=O)c3ccc4c(c3)N(C[C@@H]3CC[C@H]32)C[C@@]2(CCCc3cc(Cl)ccc32)CO4)CC1` [Example 51, [(3R,6R,7S,8E,22S)-6′-Chloro-12,12-dimethyl-13,15,15-trioxo-spiro[11,20-dioxa-15-thia-1,14-diazatetracyclo[14.7.2.03,6.019,24]pentacosa-8,16,18,24-tetraene-22,1′-tetralin]-7-yl] 4-methoxypiperidine-1-carboxylate] the same measures were under 1 nM and under 500 nM.
Regarding `CC1(C)OC/C=C/[C@H](OC(=O)NCC(F)F)[C@@H]2CC[C@H]2CN2C[C@@]3(CCCc4cc(Cl)ccc43)COc3ccc(cc32)S(=O)(=O)NC1=O` [Example 179, [(3R,6R,7S,8E,22S)-6′-Chloro-12,12-dimethyl-13,15,15-trioxo-spiro[11,20-dioxa-15-thia-1,14-diazatetracyclo[14.7.2.03,6.019,24]pentacosa-8,16,18,24-tetraene-22,1′-tetralin]-7-yl] N-(2,2-difluoroethyl)carbamate], the Ki at MCL-1 (class symbols) is under 1 nM. Moreover, the IC50 in the experiment on H929 cells was under 500 nM.
For `CC1/C=C/[C@H](OC(=O)N(C)C)[C@@H]2CC[C@H]2CN2C[C@@]3(CCCc4cc(Cl)ccc43)COc3ccc(cc32)S(=O)(=O)NC(=O)C(C)(C)O1` (stereo partly drawn) [Example 292, [(3R,6R,7S,8E,22S)-6′-Chloro-10,12,12-trimethyl-13,15,15-trioxo-spiro[11,20-dioxa-15-thia-1,14-diazatetracyclo[14.7.2.03,6.019,24]pentacosa-8,16,18,24-tetraene-22,1′-tetralin]-7-yl] N,N-dimethylcarbamate], the Ki on MCL-1 (class symbols) was under 1 nM. Also, the concentration for half-maximal inhibition (IC50) with H929 cells is under 500 nM.
In the same order, the values of `CO[C@@H]1/C=C/CN[C@@H](C2CC2)C(=O)NS(=O)(=O)c2ccc3c(c2)N(C[C@@H]2CC[C@H]21)C[C@@]1(CCCc2cc(Cl)ccc21)CO3` [Example 126, (3R,6R,7R,8E,12S,22S)-6′-Chloro-7-methoxy-12-cyclopropyl-15,15-dioxo-spiro[20-oxa-15-thia-1,11,14-triazatetracyclo[14.7.2.03,6.019,24]pentacosa-8,16,18,24-tetraene-22,1′-tetralin]-13-one] are 1 to 100 nM and over 1000 nM.
In the same order, the values of `COC(=O)N(C)[C@H]1/C=C/COC(C)(C)C(=O)NS(=O)(=O)c2ccc3c(c2)N(C[C@@H]2CC[C@H]21)C[C@@]1(CCCc2cc(Cl)ccc21)CO3` [Example 254, Methyl N-methyl-N-[(3R,6R,7S,8E,22S)-6′-chloro-12,12-dimethyl-13,15,15-trioxo-spiro[11,20-dioxa-15-thia-1,14-diazatetracyclo[14.7.2.03,6.019,24]pentacosa-8,16(25),17,19(24)-tetraene-22,1′-tetralin]-7-yl]carbamate] are 1 to 100 nM and over 1000 nM.
In the same order, the values of `CO[C@H]1/C=C/CCCC(=O)NS(=O)(=O)c2ccc3c(c2)N(C[C@@H]2CC[C@H]21)C[C@@]1(CCCc2cc(Cl)ccc21)CO3` [Example 80, (3R,6R,7S,8E,22S)-6′-Chloro-7-methoxy-15,15-dioxo-spiro[20-oxa-15-thia-1,14-diazatetracyclo[14.7.2.03,6.019,24]pentacosa-8,16(25),17,19(24)-tetraene-22,1′-tetralin]-13-one] are 1 to 100 nM and over 1000 nM.
For `COC[C@@H]1CC/C=C/[C@@H](OC)[C@@H]2CC[C@H]2CN2C[C@@]3(CCCc4cc(Cl)ccc43)COc3ccc(cc32)S(=O)(=O)NC1=O` [Example 96, (3R,6R,7R,8E,12S,22S)-6′-Chloro-12-(methoxymethyl)-7-methoxy-15,15-dioxo-spiro[20-oxa-15-thia-1,14-diazatetracyclo[14.7.2.03,6.019,24]pentacosa-8,16,18,24-tetraene-22,1′-tetralin]-13-one], the Ki on MCL-1 (class symbols) was under 1 nM. In addition, the IC50 in the experiment with H929 cells is over 1000 nM.
For `COC1CCN(C(=O)O[C@H]2/C=C/CN(C)C3(CCC3)C(=O)NS(=O)(=O)c3ccc4c(c3)N(C[C@@H]3CC[C@H]32)C[C@@]2(CCCc3cc(Cl)ccc32)CO4)CC1` [Example 245, [(3R,6R,7S,8E,22S)-6′-Chloro-11-methyl-12,12-(1,3-propylene)-13,15,15-trioxo-spiro[20-oxa-15-thia-1,11,14-triazatetracyclo[14.7.2.03,6.019,24]pentacosa-8,16,18,24-tetraene-22,1′-tetralin]-7-yl] 4-methoxypiperidine-1-carboxylate] the same measures were under 1 nM and under 500 nM.
With `CC1(C)OC/C=C/[C@H](OCC(=O)N[C@H]2CCOC2)[C@@H]2CC[C@H]2CN2C[C@@]3(CCCc4cc(Cl)ccc43)COc3ccc(cc32)S(=O)(=O)NC1=O` [Example 285, 2-[(3R,6R,7S,8E,22S)-6′-Chloro-12,12-dimethyl-13,15,15-trioxo-spiro[11,20-dioxa-15λ6-thia-1,14-diazatetracyclo[14.7.2.03,6.019,24]pentacosa-8,16,18,24-tetraene-22,1′-tetralin]-7-yl]oxy-N-[(3S)-tetrahydrofuran-3-yl]acetamide], the Ki at MCL-1 (class symbols) is under 1 nM. Besides, the IC50 in the experiment on H929 cells was under 500 nM.
For `CC1(C)OC/C=C/[C@H](OC(=O)N[C@@H]2CCOC2)[C@@H]2CC[C@H]2CN2C[C@@]3(CCOc4cc(Cl)ccc43)COc3ccc(cc32)S(=O)(=O)NC1=O` [Example 302, [(3R,6R,7S,8E,22S)-7′-Chloro-12,12-dimethyl-13,15,15-trioxo-spiro[11,20-dioxa-15-dioxa-15-thia-1,14-diazatetracyclo[14.7.2.03,6.019,24]pentacosa-8,16,18,24-tetraene-22,4′-chromane]-7-yl] N-[(3R)-tetrahydrofuran-3-yl]carbamate] the same measures were under 1 nM and under 500 nM.
For `CCOC1CN(C(=O)O[C@H]2/C=C/COC3(CCC3)C(=O)NS(=O)(=O)c3ccc4c(c3)N(C[C@@H]3CC[C@H]32)C[C@@]2(CCCc3cc(Cl)ccc32)CO4)C1` [Example 230, [(3R,6R,7S,8E,22S)-6′-Chloro-12,12-(1,3-propylene)-13,15,15-trioxo-spiro[11,20-dioxa-15-thia-1,14-diazatetracyclo[14.7.2.03,6.019,24]pentacosa-8,16(25),17,19(24)-tetraene-22,1′-tetralin]-7-yl]-N,N-1,3-(2-ethoxy)propylene carbamate] the same measures were under 1 nM and under 500 nM.
